Results published in patent publication US9776972B2, “Pyrazole derivatives as arginine methyltransferase inhibitors and uses thereof” (priority 2013, dated 2017).
Structures can show the parent of a compound that is named as a salt. Where two headings read alike, the source gives them in different places.

Legend:
human PRMT1 = molecular target: T1, human PRMT1 (Homo sapiens, UniProt Q99873); assay: PRMT1 Biochemical Assay (3H-SAM Flashplate, peptide substrate)
T1 construct: GST-tagged PRMT1; made in house; host or cells: High Five insect cells (baculovirus)
From the text: S-adenosylmethionine (SAM), S-adenosylhomocysteine (SAH), bicine, Tween20, dimethylsulfoxide (DMSO), bovine skin gelatin (BSG), and Tris(2-carboxyethyl)phosphine hydrochloride solution (TCEP) were purchased from Sigma-Aldrich at the highest level of purity possible. ^3H-SAM was purchase from American Radiolabeled Chemicals with a specific activity of 80 Ci/mmol. 384-well streptavidin Flashplates were purchased from PerkinElmer.
Recombinant baculovirus were generated according to Bac-to-Bac kit instructions (Life Technologies). […] Infections were carried out at 27° C. for 48 hours, harvested by centrifugation, and stored at −80° C. for purification.
GST-tagged PRMT1 was eluted with 50 mM Tris, 2 mM glutathione, pH 7.8, dialysed in buffer A and concentrated to 1 mg/mL.
General Procedure for PRMT1 Enzyme Assays on Peptide Substrates.
The assays were all performed in a buffer consisting of 20 mM Bicine (pH=7.6), 1 mM TCEP, 0.005% BSG, and 0.002% Tween 20, prepared on the day of use. […] DMSO (1 ul) was added to Columns 11, 12, 23, 24, rows A-H for the maximum signal control and 1 ul of SAH, a known product and inhibitor of PRMT1, was added to columns 11, 12, 23, 24, rows I-P for the minimum signal control. A cocktail (40 ul) containing the PRMT1 enzyme was added by Multidrop Combi (Thermo-Fisher). The compounds were allowed to incubate with PRMT1 for 30 min at room temperature, then a cocktail (10 ul) containing SAM and peptide was added to initiate the reaction (final volume=51 ul). […] The assays were stopped by the addition of non-radiolabeled SAM (10 ul) to a final concentration of 300 uM, which dilutes the ^3H-SAM to a level where its incorporation into the peptide substrate is no longer detectable. 50 ul of the reaction in the 384-well polypropylene plate was then transferred to a 384-well Flashplate and the biotinylated peptides were allowed to bind to the streptavidin surface for at least 1 hour before being washed once with 0.1% Tween20 in a Biotek ELx405 plate washer. The plates were then read in a PerkinElmer TopCount plate reader to measure the quantity of ^3H-labeled peptide bound to the Flashplate surface, measured as disintegrations per minute (dpm) or alternatively, referred to as counts per minute (cpm).
Where dpm=disintegrations per minute, cmpd=signal in assay well, and min and max are the respective minimum and maximum signal controls.
Where top and bottom are the normally allowed to float, but may be fixed at 100 or 0 respectively in a 3-parameter fit. The Hill Coefficient normally allowed to float but may also be fixed at 1 in a 3-parameter fit. Y is the % inhibition and X is the compound concentration.

[1] = system: mono-methyl arginine in RKO cells; assay: RKO Methylation Assay, In Cell Western (ICW) for mono-methyl arginine and DNA content; type: cell-based; conditions: Homo sapiens, RKO, 72 h
From the text: RKO adherent cells were purchased from ATCC (American Type Culture Collection), Manassas, Va., USA. DMEM/Glutamax medium, penicillin-streptomycin, heat inactivated fetal bovine serum, 0.05% trypsin and D-PBS were purchased from Life Technologies, Grand Island, N.Y., USA. Odyssey blocking buffer, 800CW goat anti-rabbit IgG (H+L) antibody, and Licor Odyssey infrared scanner were purchased from Licor Biosciences, Lincoln, Nebr., USA. Mono-methyl arginine antibody was purchased from Cell Signaling Technology, Danvers, Mass., USA. Methanol was purchased from VWR, Franklin, Mass., USA. 10% Tween 20 was purchased from KPL, Inc., Gaithersburg, Md., USA. DRAQ5 was purchased from Biostatus Limited, Leicestershire, UK.
RKO adherent cells were maintained in growth medium (DMEM/Glutamax medium supplemented with 10% v/v heat inactivated fetal bovine serum and 100 units/mL penicillin-streptomycin) and cultured at 37° C. under 5% CO2.
Cell Treatment, in Cell Western (ICW) for Detection of Mono-Methyl Arginine and DNA Content.
RKO cells were seeded in assay medium at a concentration of 20,000 cells per mL to a poly-D-lysine coated 384 well culture plate (BD Biosciences 356697) with 50 μL per well. Compound (100 nL) from a 96-well source plate was added directly to 384 well cell plate. Plates were incubated at 37° C., 5% CO2 for 72 hours. After three days of incubation, plates were brought to room temperature outside of the incubator for ten minutes and blotted on paper towels to remove cell media. 50 μL of ice cold 100% methanol was added directly to each well and incubated for 30 min at room temperature. After 30 min, plates were transferred to a Biotek EL406 plate washer and washed 2 times with 100 μL per well of wash buffer (1×PBS). Next 60 μL per well of Odyssey blocking buffer (Odyssey Buffer with 0.1% Tween 20 (v/v)) were added to each plate and incubated 1 hour at room temperature. Blocking buffer was removed and 20 μL per well of primary antibody was added (mono-methyl arginine diluted 1:200 in Odyssey buffer with 0.1% Tween 20 (v/v)) and plates were incubated overnight (16 hours) at 4° C. Plates were washed 5 times with 100 μL per well of wash buffer. Next 20 μL per well of secondary antibody was added (1:200 800CW goat anti-rabbit IgG (H+L) antibody, 1:1000 DRAQ5 (Biostatus limited) in Odyssey buffer with 0.1% Tween 20 (v/v)) and incubated for 1 hour at room temperature. The plates were washed 5 times with 100 μL per well wash buffer then 2 times with 100 μL per well of water. Plates were allowed to dry at room temperature then imaged on the Licor Odyssey machine which measures integrated intensity at 700 nm and 800 nm wavelengths. Both 700 and 800 channels were scanned.
First, the ratio for each well was determined by:
Each plate included fourteen control wells of DMSO only treatment (minimum activation) as well as fourteen control wells for maximum activation treated with 20 μM of a reference compound. The average of the ratio values for each control type was calculated and used to determine the percent activation for each test well in the plate. Reference compound was serially diluted three-fold in DMSO for a total of nine test concentrations, beginning at 20 μM. Percent activation was determined and EC30 curves were generated using triplicate wells per concentration of compound.

[2] = single experiment or average of multiple experiments
[3] = RKO cells, 72 hours, mono-methyl arginine, percent activation, single experiment or average of multiple experiments, read-out: EC30 (In Cell Western data, Numerical)
[4] = read-out: EC30 (In Cell Western data, Numerical, μM)

T1 sequence (Q99873 with tags, fused parts or gaps): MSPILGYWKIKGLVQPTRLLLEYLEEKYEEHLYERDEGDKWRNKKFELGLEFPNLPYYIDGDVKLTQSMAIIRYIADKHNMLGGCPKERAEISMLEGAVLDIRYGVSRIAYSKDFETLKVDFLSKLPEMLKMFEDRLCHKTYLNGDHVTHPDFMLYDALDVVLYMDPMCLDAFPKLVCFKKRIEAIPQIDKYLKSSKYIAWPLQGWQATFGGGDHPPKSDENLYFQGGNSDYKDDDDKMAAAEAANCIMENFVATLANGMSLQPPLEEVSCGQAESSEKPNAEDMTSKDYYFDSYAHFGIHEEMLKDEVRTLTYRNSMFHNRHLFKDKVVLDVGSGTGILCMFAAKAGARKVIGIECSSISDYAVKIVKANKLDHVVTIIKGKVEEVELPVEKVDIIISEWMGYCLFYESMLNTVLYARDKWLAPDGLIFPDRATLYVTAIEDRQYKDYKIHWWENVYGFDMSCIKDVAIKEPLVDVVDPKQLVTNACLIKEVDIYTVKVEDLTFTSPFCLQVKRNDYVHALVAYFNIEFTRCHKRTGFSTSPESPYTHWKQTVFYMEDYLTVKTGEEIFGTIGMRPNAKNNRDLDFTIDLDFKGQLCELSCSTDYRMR

| IC50 (human PRMT1; [2]) [nM] | Compound | EC30 [1, 3] [µM] | EC30 [1, 4] [µM] | IC50 (human PRMT1) [nM] | EC30 ([1]; read-out: EC30 (In Cell Western data)) [µM] |
| --- | --- | --- | --- | --- | --- |
| 46 | CC(O)c1ccc(-c2n[nH]cc2CN(C)CCN)cc1 (stereo not shown) [Compound 115] | – | – | – | – |
| 4.84 | CN(CCN)Cc1c[nH]nc1-c1ccc(C2CC2)cc1 [Compound 116] | 1.41 | – | – | – |
| 5.76 | CN(CCN)Cc1c[nH]nc1-c1ccc(C(F)(F)F)c(Cl)c1 [Compound 117] | 1.29 | – | – | – |
| 2.94 | CN(CCN)Cc1c[nH]nc1-c1ccc(Cl)c(F)c1 [Compound 118] | 0.314 | – | – | – |
| 16.2 | CN(CCN)Cc1n[nH]cc1-c1ccc(OC2CC2)cc1 [Compound 119] | 4.54 | – | – | – |
| 10.7 | CN(CCN)Cc1c[nH]nc1-c1cc(F)cc(Cl)c1 [Compound 121] | 2.07 | – | – | – |
| 24.3 | CN(CCN)Cc1c[nH]nc1-c1cccc(Cl)c1 [Compound 122] | 3.48 | – | – | – |
| 43.9 | CN(CCN)Cc1c[nH]nc1-c1cccc(Cl)c1F [Compound 123] | 2.96 | – | – | – |
| 13.7 | CN(CCN)Cc1c[nH]nc1-c1ccc(F)c(Cl)c1 [Compound 124] | 1.23 | – | – | – |
| 6.81 | Cc1ccc(-c2n[nH]cc2CN(C)CCN)cc1Cl [Compound 126] | 1.23 | – | – | – |
| 46.1 | COc1cc(Cl)cc(-c2n[nH]cc2CN(C)CCN)c1 [Compound 127] | 7.01 | – | – | – |
| 121 | Cc1c(F)cccc1-c1n[nH]cc1CN(C)CCN [Compound 129] | 7.38 | – | – | – |
| 135 | COc1cccc(-c2n[nH]cc2CN(C)CCN)c1 [Compound 130] | 3.92 | – | – | – |
| 29.6 | Cc1cccc(-c2n[nH]cc2CN(C)CCN)c1 [Compound 131] | 2.56 | – | – | – |
| 24.8 | Cc1cc(Cl)ccc1-c1n[nH]cc1CN(C)CCN [Compound 133] | 2.91 | – | – | – |
| 10.8 | COc1ccc(-c2n[nH]cc2CN(C)CCN)cc1F [Compound 134] | 1.09 | – | – | – |
| 48.1 | CN(CCN)Cc1c[nH]nc1-c1ccc(C(F)(F)F)cc1Cl [Compound 135] | 8.05 | – | – | – |
| 27.5 | CCNC(=O)c1ccc(-c2n[nH]cc2CN(C)CCN)cc1 [Compound 136] | > 20 | – | – | – |
| 19.2 | CN(CCN)Cc1c[nH]nc1-c1cc(Cl)cc(Cl)c1 [Compound 137] | 4.18 | – | – | – |
| 21.2 | CN(CCN)Cc1n[nH]cc1-c1ccc(OC(F)F)cc1 [Compound 138] | 2.28 | – | – | – |
| 399 | CN(CCN)Cc1c[nH]nc1-c1ccccc1C#N [Compound 140] | > 20 | – | – | – |
| 8.16 | CN(CCN)Cc1c[nH]nc1-c1ccc(C(F)(F)F)c(F)c1 [Compound 141] | 0.583 | – | – | – |
| 29.7 | COc1cc(-c2n[nH]cc2CN(C)CCN)ccc1F [Compound 142] | 2.1 | – | – | – |
| 116 | CCN(CC)C(=O)c1ccc(-c2n[nH]cc2CN(C)CCN)cc1 [Compound 143] | > 20 | – | – | – |
| 5.79 | CC(C)Oc1ccc(-c2c[nH]nc2CN(C)CCN)cc1F [Compound 144] | 0.284 | – | – | – |

The next lines start with the compound.

| Compound | IC50 (human PRMT1; [2]) [nM] | EC30 [1, 3] [µM] | EC30 [1, 4] [µM] | IC50 (human PRMT1) [nM] | EC30 ([1]; read-out: EC30 (In Cell Western data)) [µM] |
| --- | --- | --- | --- | --- | --- |
| COCCn1ncc(CN(C)CCN)c1-c1ccc(F)cc1 [Compound 6] | 3460 | > 20 | – | – | – |
| CCn1ncc(CN(C)CCNC)c1-c1ccc(F)cc1 [Compound 7] | 265 | 5.76 | – | – | – |
| CCn1cc(CN(C)CCNC)c(-c2ccc(F)cc2)n1 [Compound 8] | 1180 | > 20 | – | – | – |
| CN(CCN)Cc1c[nH]nc1-c1ccc(OCC(F)(F)F)cc1 [Compound 96] | 4.41 | 0.92 | – | – | – |
| CC(C)Oc1ccc(-c2n[nH]cc2CN(C)CCN)cc1F [Compound 97] | 2.6 | – | 0.184 | – | – |
| CN(CCN)Cc1c[nH]nc1-c1ccc(C2CCOCC2)cc1 [Compound 98] | 5.84 | 2.85 | – | – | – |
| CN(CCN)Cc1c[nH]nc1-c1ccc(F)cc1F [Compound 99] | 90.2 | 11.8 | – | – | – |
| CN(CCN)Cc1n[nH]cc1-c1ccc(C#N)cc1 [Compound 100] | 12 | 2.98 | – | – | – |
| CC(C)c1ccc(-c2c[nH]nc2CN(C)CCN)cc1 [Compound 101] | 20.3 | – | 5.99 | – | – |
| CN(CCN)Cc1n[nH]cc1-c1ccc(Cl)cc1 [Compound 102] | 11.3 | 2.32 | – | – | – |
| CN(CCN)Cc1n[nH]cc1-c1ccc(C(F)(F)F)cc1 [Compound 103] | 10.2 | 3.67 | – | – | – |
| CN(CCN)Cc1n[nH]cc1-c1ccc(C2CC2)cc1 [Compound 104] | 15.7 | 3.92 | – | – | – |
| CN(CCN)Cc1n[nH]cc1-c1ccc(OC(F)(F)F)cc1 [Compound 105] | 8.85 | 2.28 | – | – | – |
| COc1ccc(-c2n[nH]cc2CN(C)CCN)c(F)c1 [Compound 107] | 44.1 | – | – | – | – |
| Cc1ccc(-c2n[nH]cc2CN(C)CCN)c(F)c1 [Compound 108] | 31.3 | – | – | – | – |
| COc1ccccc1-c1n[nH]cc1CN(C)CCN [Compound 109] | 244 | – | – | – | – |
| Cc1cc(C#N)ccc1-c1n[nH]cc1CN(C)CCN [Compound 110] | 21.6 | – | – | – | – |
| CN(CCN)Cc1c[nH]nc1-c1cc(F)cc(F)c1 [Compound 111] | 18.9 | – | – | – | – |
| CC(=O)c1cccc(-c2n[nH]cc2CN(C)CCN)c1 [Compound 112] | 81 | – | – | – | – |
| CN(CCN)Cc1c[nH]nc1-c1ccc(OC2CC2)cc1 [Compound 114] | 5.75 | 0.607 | – | – | – |
| COc1ccc(-c2n[nH]cc2CN(C)CCN)cc1Cl [Compound 125] | 8.38 | – | 1.57 | – | – |
| CN(CCN)Cc1c[nH]nc1-c1ccc(Cl)cc1F [Compound 132] | 23.9 | – | 2.4 | – | – |
| CNCCN(C)Cc1cnn(C)c1-c1ccc(OC(C)C)cc1 [Compound 244, hydrochloride] | 8.68 | – | 0.142 | < 100 | < 3 |
